Patent US10053428B2, “5-aminotetrahydroquinoline-2-carboxylic acids and their use” (BAYER PHARMA AKTIENGESELLSCHAFT, priority 2012, dated 2018)

Each compound was assayed on recombinant guanylate cyclase reporter cell line (assay: sGC-activating activity in the CHO reporter cell in vitro). Details: read-out: MEC (minimum effective concentration).
Type: cell-based
Procedure: B-2. Action at a Recombinant Guanylate Cyclase Reporter Cell Line
The cellular action of the compounds according to the invention is determined at a recombinant guanylate cyclase reporter cell line, as described in F. Wunder et al., Anal. Biochem. 32, 104-112 (2005).

| SMILES | minimal effective concentration [nM] |
| --- | --- |
| Cc1ccc2oc(-c3ccc(COc4ccccc4CCN(CCc4ccc(C(=O)O)cc4)C4CCCc5nc(C(=O)O)ccc54)cc3)nc2c1 (single isomer, unassigned) [Example 21] | 100 |
| O=C(O)c1ccc(CCN(CCc2cc(F)ccc2OCc2ccc(-c3ccc(C(F)(F)F)cc3)cc2Cl)C2CCCc3nc(C(=O)O)ccc32)cc1 (single isomer, unassigned) [Example 33] | 10 |
| O=C(O)CCCCN(CCc1ccccc1OCCCCCc1ccccc1)C1CCCc2nc(C(=O)O)ccc21 (single isomer, unassigned) [Example 10] | 300 |
| O=C(O)CCCCN(CCc1cc(F)ccc1OCc1ccc(-c2nc3cc(Cl)ccc3o2)cc1)C1CCCc2nc(C(=O)O)ccc21 (single isomer, unassigned) [Example 36] | 30 |
| O=C(O)c1ccc(CCN(CCc2cc(F)ccc2OCc2ccc(-c3ccc(C(F)(F)F)cc3)cc2Cl)C2CCCc3nc(C(=O)O)ccc32)cc1 (single isomer, unassigned) [Example 34] | 1 |
| O=C(O)c1ccc(CCN(CCc2ccccc2OCc2ccc(-c3nc4cc(Cl)ccc4o3)cc2)C2CCCc3nc(C(=O)O)ccc32)cc1 (single isomer, unassigned; enantiomer 1) [Example 19, 5-{[2-(4-Carboxyphenyl)ethyl][2-(2-{[4-(5-chloro-1,3-benzoxazol-2-yl)benzyl]oxy}phenyl)ethyl]-amino}-5,6,7,8-tetrahydroquinoline-2-carboxylic acid (Enantiomer 1)] | 30 |
| O=C(O)CCCCN(CCc1cc(F)ccc1OCc1ccc(-c2nc3cc(Cl)ccc3o2)cc1)C1CCCc2nc(C(=O)O)ccc21 (single isomer, unassigned) [Example 37] | 1 |
| O=C(O)c1ccc(CCN(CCc2ccccc2OCc2ccc(-c3nc4ccccc4o3)cc2)C2CCCc3nc(C(=O)O)ccc32)cc1 (single isomer, unassigned) [Example 26] | 1 |
| O=C(O)c1ccc(CCN(CCc2ccccc2OCc2ccc(CCc3ccccc3)cc2)C2CCCc3nc(C(=O)O)ccc32)cc1 (single isomer, unassigned; enantiomer 2) [Example 38, 5-{[2-(4-Carboxyphenyl)ethyl][2-(2-{[4-(2-phenylethyl)benzyl]oxy}phenyl)ethyl]amino}-5,6,7,8-tetrahydroquinoline-2-carboxylic acid (Enantiomer 2)] | 0.3 |
| O=C(O)c1ccc(CCN(CCc2cc(F)ccc2OCc2ccc(-c3nc4cc(Cl)ccc4o3)cc2)C2CCCc3nc(C(=O)O)ccc32)cc1 (single isomer, unassigned) [Example 35] | 3 |
| O=C(O)CCCCN(CCc1ccccc1OCc1ccc(-c2ccc(C(F)(F)F)cc2)cc1)C1CCCc2nc(C(=O)O)ccc21 (single isomer, unassigned) [Example 17] | 1000 |
| N#Cc1ccc2oc(-c3ccc(COc4ccccc4CCN(CCc4ccc(C(=O)O)cc4)C4CCCc5nc(C(=O)O)ccc54)cc3)nc2c1 (single isomer, unassigned) [Example 30] | 1 |
| O=C(O)c1ccc(CCN(CCc2ccccc2OCc2ccc(-c3nc4cc(Cl)ccc4o3)cc2)C2CCCc3nc(C(=O)O)ccc32)cc1 (single isomer, unassigned; enantiomer 2) [Example 20, 5-{[2-(4-Carboxyphenyl)ethyl][2-(2-{[4-(5-chloro-1,3-benzoxazol-2-yl)benzyl]oxy}phenyl)ethyl]-amino}-5,6,7,8-tetrahydroquinoline-2-carboxylic acid (Enantiomer 2)] | 3 |
| O=C(O)CCCCN(CCc1ccccc1OCCCCCc1ccccc1)C1CCCc2nc(C(=O)O)ccc21 (single isomer, unassigned) [Example 9] | 10 |
| CCC(=O)N1CCC(c2ccc(COc3ccccc3CCN(CCCCC(=O)O)C3CCCc4nc(C(=O)O)ccc43)cc2)CC1 (stereo not shown) [Example 5] | 100 |
| O=C(O)CCCCN(CCc1ccccc1OCc1ccc(-c2nc3cc(Cl)ccc3o2)cc1)C1CCCc2nc(C(=O)O)ccc21 (single isomer, unassigned) [Example 32] | 0.3 |
| O=C(O)c1ccc(CCN(CCc2cc(F)ccc2OCc2ccc(CCc3ccc(F)cc3)cc2)C2CCCc3nc(C(=O)O)ccc32)cc1 (single isomer, unassigned; enantiomer 2) [Example 43, 5-([2-(4-Carboxyphenyl)ethyl]{2-[5-fluoro-2-({4-[2-(4-fluorophenyl)ethyl]benzyl}oxy)phenyl]-ethyl}amino)-5,6,7,8-tetrahydroquinoline-2-carboxylic acid (Enantiomer 2)] | 0.3 |
| CC(C)(C)c1ccc(COc2ccccc2CCN(CCCCC(=O)O)C2CCCc3nc(C(=O)O)ccc32)cc1 (single isomer, unassigned) [Example 3] | 100 |
| Cc1ccc2oc(-c3ccc(COc4ccccc4CCN(CCc4ccc(C(=O)O)cc4)C4CCCc5nc(C(=O)O)ccc54)cc3)nc2c1 (single isomer, unassigned) [Example 22] | 1 |
| O=C(O)CCCCN(CCc1ccccc1OCc1ccc([C@H]2CC[C@H](C(F)(F)F)CC2)cc1)C1CCCc2nc(C(=O)O)ccc21 (stereo partly shown) [Example 11] | 0.3 |
| O=C(O)c1ccc(CCN(CCc2cc(F)ccc2OCc2ccc(CCc3ccc(F)cc3)cc2)C2CCCc3nc(C(=O)O)ccc32)cc1 (single isomer, unassigned) [Example 42] | 3 |
| O=C(O)CCCCN(CCc1ccccc1OCc1ccc(-c2ccc(C(F)(F)F)cc2)cc1Cl)C1CCCc2nc(C(=O)O)ccc21 (single isomer, unassigned) [Example 8] | 3 |
| N#Cc1ccc2oc(-c3ccc(COc4ccccc4CCN(CCCCC(=O)O)C4CCCc5nc(C(=O)O)ccc54)cc3)nc2c1 (single isomer, unassigned) [Example 31] | 10 |
| O=C(O)CCCCN(CCc1ccccc1OCc1ccc(-c2ccc(C(F)(F)F)cc2)cc1Cl)C1CCCc2nc(C(=O)O)ccc21 (single isomer, unassigned) [Example 7] | 0.3 |
| CC(C)(C)c1ccc(COc2ccccc2CCN(CCc2ccc(C(=O)O)cc2)C2CCCc3nc(C(=O)O)ccc32)cc1 (racemic) [Example 12, rac-5-{(2-{2-[(4-tert-Butylbenzyl)oxy]phenyl}ethyl)[2-(4-carboxyphenyl)ethyl]amino}-5,6,7,8-tetrahydroquinoline-2-carboxylic acid] | 0.3 |
| O=C(O)c1ccc(CCN(CCc2ccccc2OCc2ccc(-c3nc4cc(OC(F)(F)F)ccc4o3)cc2)C2CCCc3nc(C(=O)O)ccc32)cc1 (single isomer, unassigned) [Example 29] | 3 |
| O=C(O)c1ccc(CCN(CCc2ccccc2OCc2ccc(-c3nc4cc(C(F)(F)F)ccc4o3)cc2)C2CCCc3nc(C(=O)O)ccc32)cc1 (single isomer, unassigned) [Example 24] | 1 |
| O=C(O)CCCCN(CCc1ccccc1OCc1ccc(-c2nc3cc(C(F)(F)F)ccc3o2)cc1)C1CCCc2nc(C(=O)O)ccc21 (single isomer, unassigned) [Example 25] | 0.3 |
